Results: ChEMBL document CHEMBL1909046, “DrugMatrix in vitro pharmacology data”

Columns and labels:
[1] = biological target: 5-hydroxytryptamine receptor 4 (Cavia porcellus, UniProt O70528); type: cell membranes, Dunkin-Hartley, Striatum, Membrane; further: in other assays of this panel Not Active means under 50% inhibition at 10 µM
Adenosine receptor A3 = biological target: T1, Adenosine receptor A3 (Homo sapiens, UniProt P0DMS8); type: cell membranes, CHO-K1, Membrane; settings: cho-k1;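 further: radioligand binding assay with AB-MECA serving as the labeled ligand; in other assays of this panel Not Active means under 50% inhibition at 10 µM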
T1 sequence (P0DMS8 whole entry): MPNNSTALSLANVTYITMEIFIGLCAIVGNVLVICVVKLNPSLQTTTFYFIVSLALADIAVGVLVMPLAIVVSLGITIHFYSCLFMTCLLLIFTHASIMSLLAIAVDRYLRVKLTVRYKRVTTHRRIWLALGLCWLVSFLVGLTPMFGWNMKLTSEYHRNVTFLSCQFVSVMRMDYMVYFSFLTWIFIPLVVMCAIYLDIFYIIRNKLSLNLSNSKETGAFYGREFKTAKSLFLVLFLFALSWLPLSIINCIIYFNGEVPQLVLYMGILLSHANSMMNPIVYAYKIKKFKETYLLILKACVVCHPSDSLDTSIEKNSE

Glucocorticoid receptor = biological target: T2, Glucocorticoid receptor (Homo sapiens, UniProt P04150); settings: hela s3; further: in other assays of this panel Not Active means under 50% inhibition at 10 µM
T2 sequence (P04150 whole entry): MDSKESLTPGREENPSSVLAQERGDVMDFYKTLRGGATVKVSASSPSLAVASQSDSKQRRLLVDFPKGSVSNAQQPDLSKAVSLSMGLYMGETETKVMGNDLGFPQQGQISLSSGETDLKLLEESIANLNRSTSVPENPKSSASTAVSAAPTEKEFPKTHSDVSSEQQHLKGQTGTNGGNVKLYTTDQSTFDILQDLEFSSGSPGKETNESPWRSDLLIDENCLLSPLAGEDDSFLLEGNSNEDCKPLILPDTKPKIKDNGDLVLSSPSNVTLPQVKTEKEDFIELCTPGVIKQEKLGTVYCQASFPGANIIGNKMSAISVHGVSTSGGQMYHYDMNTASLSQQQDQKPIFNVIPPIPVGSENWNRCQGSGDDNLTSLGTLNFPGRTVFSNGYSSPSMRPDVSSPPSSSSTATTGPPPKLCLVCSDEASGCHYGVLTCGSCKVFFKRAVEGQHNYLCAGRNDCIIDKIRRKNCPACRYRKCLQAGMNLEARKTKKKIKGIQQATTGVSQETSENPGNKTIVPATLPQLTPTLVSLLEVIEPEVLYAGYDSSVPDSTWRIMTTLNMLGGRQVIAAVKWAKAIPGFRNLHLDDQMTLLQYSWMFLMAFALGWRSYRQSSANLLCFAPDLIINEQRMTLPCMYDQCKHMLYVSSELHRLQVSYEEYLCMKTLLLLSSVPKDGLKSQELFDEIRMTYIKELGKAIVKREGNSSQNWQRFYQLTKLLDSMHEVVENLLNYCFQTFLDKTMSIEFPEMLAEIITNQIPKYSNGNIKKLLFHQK

Estrogen receptor beta = Estrogen receptor beta (Homo sapiens, UniProt Q92731); settings: sf9; further: in other assays of this panel Not Active means under 50% inhibition at 10 µM
Chain of Estrogen receptor beta (Q92731 whole entry): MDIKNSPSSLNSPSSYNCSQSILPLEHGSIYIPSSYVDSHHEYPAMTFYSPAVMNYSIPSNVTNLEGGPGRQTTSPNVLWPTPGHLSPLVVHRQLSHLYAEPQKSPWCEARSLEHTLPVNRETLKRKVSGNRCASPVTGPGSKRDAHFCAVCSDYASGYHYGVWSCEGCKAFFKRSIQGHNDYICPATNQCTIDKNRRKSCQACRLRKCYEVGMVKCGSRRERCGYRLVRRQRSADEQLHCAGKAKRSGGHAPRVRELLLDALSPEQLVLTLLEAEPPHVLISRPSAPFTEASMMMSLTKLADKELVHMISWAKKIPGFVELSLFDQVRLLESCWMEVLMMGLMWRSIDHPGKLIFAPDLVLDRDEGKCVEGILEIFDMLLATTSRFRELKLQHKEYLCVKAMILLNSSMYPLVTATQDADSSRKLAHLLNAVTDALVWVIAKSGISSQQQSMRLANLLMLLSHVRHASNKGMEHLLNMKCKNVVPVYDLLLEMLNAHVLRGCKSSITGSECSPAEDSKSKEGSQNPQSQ

[2] = biological target: Vascular endothelial growth factor receptor 1 (Homo sapiens, UniProt P17948); type: cell-based; settings: huvec; further: in other assays of this panel Not Active means under 50% inhibition at 10 µM
Chain of Vascular endothelial growth factor receptor 1 (P17948 whole entry): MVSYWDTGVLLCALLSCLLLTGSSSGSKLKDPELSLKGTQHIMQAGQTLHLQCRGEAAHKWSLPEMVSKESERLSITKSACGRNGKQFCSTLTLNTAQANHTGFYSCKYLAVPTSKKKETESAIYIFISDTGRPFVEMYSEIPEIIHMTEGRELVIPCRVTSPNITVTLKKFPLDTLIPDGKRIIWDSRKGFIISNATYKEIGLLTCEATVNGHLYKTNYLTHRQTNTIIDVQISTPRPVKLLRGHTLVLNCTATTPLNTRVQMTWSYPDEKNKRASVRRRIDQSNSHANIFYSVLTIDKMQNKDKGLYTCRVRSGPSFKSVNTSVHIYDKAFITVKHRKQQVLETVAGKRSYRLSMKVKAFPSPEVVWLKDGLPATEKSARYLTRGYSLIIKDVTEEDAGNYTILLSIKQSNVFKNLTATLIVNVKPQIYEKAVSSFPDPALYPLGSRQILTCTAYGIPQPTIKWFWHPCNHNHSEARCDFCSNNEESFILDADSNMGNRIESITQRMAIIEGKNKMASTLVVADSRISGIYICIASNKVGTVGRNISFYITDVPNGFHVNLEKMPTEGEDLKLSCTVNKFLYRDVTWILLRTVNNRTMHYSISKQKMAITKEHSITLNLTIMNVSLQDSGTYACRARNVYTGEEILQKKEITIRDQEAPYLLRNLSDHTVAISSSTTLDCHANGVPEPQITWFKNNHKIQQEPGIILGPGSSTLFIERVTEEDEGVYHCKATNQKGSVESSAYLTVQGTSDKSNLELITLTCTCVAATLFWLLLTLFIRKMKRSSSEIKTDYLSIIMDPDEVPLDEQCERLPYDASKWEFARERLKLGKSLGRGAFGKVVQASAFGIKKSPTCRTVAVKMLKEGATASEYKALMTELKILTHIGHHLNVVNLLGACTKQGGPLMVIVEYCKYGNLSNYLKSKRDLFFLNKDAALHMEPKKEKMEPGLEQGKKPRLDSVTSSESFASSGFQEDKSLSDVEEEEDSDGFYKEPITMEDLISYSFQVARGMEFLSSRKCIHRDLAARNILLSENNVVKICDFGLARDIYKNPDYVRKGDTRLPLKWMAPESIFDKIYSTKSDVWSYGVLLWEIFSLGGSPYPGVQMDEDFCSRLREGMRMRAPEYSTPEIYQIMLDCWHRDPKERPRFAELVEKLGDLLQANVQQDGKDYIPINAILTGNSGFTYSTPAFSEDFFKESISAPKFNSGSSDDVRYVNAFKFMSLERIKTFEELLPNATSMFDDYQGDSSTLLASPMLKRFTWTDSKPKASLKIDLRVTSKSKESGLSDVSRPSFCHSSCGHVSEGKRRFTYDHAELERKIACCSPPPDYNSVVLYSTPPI

[3] = DRUGMATRIX: Nicotinic Acetylcholine radioligand binding (ligand: [125I] Epibatidine); type: cell membranes, Membrane; settings: imr-32; Not Active = under 50% inhibition at 10 µM
[4] = DRUGMATRIX: Phorbol Ester radioligand binding (ligand: [3H] PDBu); type: cell membranes, Mus musculus, ICR, Brain, Membrane; settings: Not Active = under 50% inhibition at 10 µM
[5] = DRUGMATRIX: Interleukin IL-1 radioligand binding (ligand: [125I] interleukin 1beta); type: cell membranes, Membrane; settings: nih3t3; Not Active = under 50% inhibition at 10 µM

Chain of 5-hydroxytryptamine receptor 4 (O70528 whole entry): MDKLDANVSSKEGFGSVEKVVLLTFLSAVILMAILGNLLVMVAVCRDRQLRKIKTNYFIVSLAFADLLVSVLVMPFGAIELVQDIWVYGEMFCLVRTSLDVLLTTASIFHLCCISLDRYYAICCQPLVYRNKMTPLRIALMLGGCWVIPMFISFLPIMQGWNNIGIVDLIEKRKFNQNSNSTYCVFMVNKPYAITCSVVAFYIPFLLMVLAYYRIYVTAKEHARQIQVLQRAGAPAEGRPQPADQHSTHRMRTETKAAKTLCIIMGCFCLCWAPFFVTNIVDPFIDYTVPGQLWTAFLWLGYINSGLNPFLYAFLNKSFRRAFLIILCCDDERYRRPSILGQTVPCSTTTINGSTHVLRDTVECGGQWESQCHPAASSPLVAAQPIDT

Cc1oncc1C(=O)Nc1ccc(C(F)(F)F)cc1 [LEFLUNOMIDE]
Not Active: IC50 [1] | IC50 (Adenosine receptor A3) | IC50 (Glucocorticoid receptor) | IC50 (Estrogen receptor beta) | IC50 [2] | IC50 [3] | Ki [3] | IC50 [4] | Ki [4] | IC50 [5] | Ki [5]

CCCOc1ccccc1-c1nc2nn[nH]c2c(=O)[nH]1 [ZAPRINAST]
Not Active: IC50 [1] | IC50 (Adenosine receptor A3) | IC50 (Glucocorticoid receptor) | IC50 (Estrogen receptor beta) | IC50 [2] | IC50 [3] | Ki [3] | IC50 [4] | Ki [4] | IC50 [5] | Ki [5]

C=CCC1(C(C)CCC)C(=O)NC(=O)NC1=O (stereo not drawn) [SECOBARBITAL]
Not Active: IC50 [1] | IC50 (Adenosine receptor A3) | IC50 (Glucocorticoid receptor) | IC50 (Estrogen receptor beta) | IC50 [2] | IC50 [3] | Ki [3] | IC50 [4] | Ki [4] | IC50 [5] | Ki [5]
